Target: T1, sigma-2 receptor (sigma-2 sites) (Rattus norvegicus, UniProt Q5U3Y7)
T1 sequence (Q5U3Y7 1-176): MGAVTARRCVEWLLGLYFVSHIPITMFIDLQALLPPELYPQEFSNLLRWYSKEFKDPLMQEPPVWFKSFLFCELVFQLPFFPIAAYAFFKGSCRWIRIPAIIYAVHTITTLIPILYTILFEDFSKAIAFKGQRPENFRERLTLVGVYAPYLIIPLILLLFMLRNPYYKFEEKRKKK
Experiment: Competitive displacement of [3H]-DTG binding, rat liver membranes
Conditions: rat liver membranes in the presence of 100 nM (+)-pentazocine; [3H]-DTG

| SMILES | KI sigma-2 sites |
| --- | --- |
| CCCCCCCNCCCc1ccccc1 [2a, N-(3-Phenylpropyl)heptan-1-amine] | nanomolar affinities |

Same assay, conditions: ratio from the KI value of sigma-1 and sigma-2 sites (membranes)

| SMILES | sigma-2/sigma-1 |
| --- | --- |
| CCCCCCCNCCCc1ccccc1 [2a, N-(3-Phenylpropyl)heptan-1-amine] | 2 |

Target: T2, 5HT1A (serotonin receptor subtype 1A) (Homo sapiens, UniProt P08908)
T2 sequence (P08908 1-422): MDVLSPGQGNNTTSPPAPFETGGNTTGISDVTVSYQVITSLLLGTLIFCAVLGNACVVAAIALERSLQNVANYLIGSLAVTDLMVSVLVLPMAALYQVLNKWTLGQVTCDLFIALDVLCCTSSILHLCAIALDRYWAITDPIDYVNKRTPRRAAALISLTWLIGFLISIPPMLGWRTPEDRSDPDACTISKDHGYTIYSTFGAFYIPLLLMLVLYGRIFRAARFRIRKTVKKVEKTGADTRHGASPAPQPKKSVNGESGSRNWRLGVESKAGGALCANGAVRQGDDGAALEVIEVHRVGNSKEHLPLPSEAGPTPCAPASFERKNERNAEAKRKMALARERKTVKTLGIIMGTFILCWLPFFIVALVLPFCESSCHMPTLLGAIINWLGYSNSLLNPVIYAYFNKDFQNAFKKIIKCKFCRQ
Experiment: NIMH PDSP secondary binding assay
Conditions: KI 5HT1A, NIMH PDSP; [3H]8-OH-DPAT/0.5 nM

| SMILES | Ki [µM] |
| --- | --- |
| CCCCCCCNCCCc1ccccc1 [2a, N-(3-Phenylpropyl)heptan-1-amine] | 0.13 |

System: Du145
Experiment: Multiplex cytotoxicity assay
Assay type: cell-based
Conditions: Homo sapiens, DU-145, read-out: IC50 Du145

| SMILES | IC50 [µM] |
| --- | --- |
| CCCCCCCNCCCc1ccccc1 [2a, N-(3-Phenylpropyl)heptan-1-amine] | 25 ± 1 |

System: HT-29
Experiment: Multiplex cytotoxicity assay
Assay type: cell-based
Conditions: Homo sapiens, HT-29, read-out: IC50 HT-29

| SMILES | IC50 [µM] |
| --- | --- |
| CCCCCCCNCCCc1ccccc1 [2a, N-(3-Phenylpropyl)heptan-1-amine] | 40 ± 1 |

Target: M1 (muscarinic acetylcholine receptor type 1) (Homo sapiens, UniProt P11229)
Sequence (P11229 whole entry): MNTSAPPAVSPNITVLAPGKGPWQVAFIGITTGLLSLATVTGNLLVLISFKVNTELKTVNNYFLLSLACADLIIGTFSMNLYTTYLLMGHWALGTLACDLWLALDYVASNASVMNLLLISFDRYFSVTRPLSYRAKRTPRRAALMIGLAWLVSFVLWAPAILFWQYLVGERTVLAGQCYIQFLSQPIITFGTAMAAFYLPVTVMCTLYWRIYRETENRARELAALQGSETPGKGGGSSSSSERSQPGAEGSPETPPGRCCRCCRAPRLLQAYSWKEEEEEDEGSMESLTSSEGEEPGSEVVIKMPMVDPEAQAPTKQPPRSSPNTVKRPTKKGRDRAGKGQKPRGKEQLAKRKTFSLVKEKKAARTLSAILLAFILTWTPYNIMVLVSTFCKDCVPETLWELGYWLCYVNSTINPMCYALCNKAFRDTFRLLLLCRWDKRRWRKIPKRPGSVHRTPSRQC
Experiment: NIMH PDSP secondary binding assay
Conditions: not given

| SMILES | Ki [µM] |
| --- | --- |
| CCCCCCCNCCCc1ccccc1 [2a, N-(3-Phenylpropyl)heptan-1-amine] | > 10 |

Target: 5HT7 (serotonin receptor subtype 7) (Homo sapiens, UniProt P34969)
Sequence (P34969 whole entry, species assumed): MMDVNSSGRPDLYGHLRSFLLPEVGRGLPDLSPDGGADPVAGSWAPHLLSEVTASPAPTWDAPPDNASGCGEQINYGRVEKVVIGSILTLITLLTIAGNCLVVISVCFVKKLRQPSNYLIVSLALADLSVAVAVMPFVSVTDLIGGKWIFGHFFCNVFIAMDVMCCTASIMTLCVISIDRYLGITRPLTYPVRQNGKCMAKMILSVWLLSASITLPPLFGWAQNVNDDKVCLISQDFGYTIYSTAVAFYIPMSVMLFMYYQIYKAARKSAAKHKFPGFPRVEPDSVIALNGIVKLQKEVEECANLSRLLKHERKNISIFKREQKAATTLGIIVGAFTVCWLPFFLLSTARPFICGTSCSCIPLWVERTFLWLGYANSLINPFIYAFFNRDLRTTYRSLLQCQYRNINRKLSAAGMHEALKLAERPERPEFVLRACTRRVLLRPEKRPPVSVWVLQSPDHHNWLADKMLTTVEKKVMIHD
Experiment: NIMH PDSP secondary binding assay
Conditions: not given

| SMILES | Ki [µM] |
| --- | --- |
| CCCCCCCNCCCc1ccccc1 [2a, N-(3-Phenylpropyl)heptan-1-amine] | > 10 |

System: caspases 3/7, 8, and 9
Experiment: Caspase activation potential
Assay type: cell-based
Conditions: data not shown

| SMILES | activation of caspases 3/7, 8, and 9 |
| --- | --- |
| CCCCCCCNCCCc1ccccc1 [2a, N-(3-Phenylpropyl)heptan-1-amine] | did not activate |

System: MDA-MB-231
Experiment: Multiplex cytotoxicity assay
Assay type: cell-based
Conditions: Homo sapiens, MDA-MB-231, read-out: IC50 MDA-MB-231

| SMILES | IC50 [µM] |
| --- | --- |
| CCCCCCCNCCCc1ccccc1 [2a, N-(3-Phenylpropyl)heptan-1-amine] | 33 ± 2 |

Target: D1 (dopamine receptor type 1) (Homo sapiens, UniProt P21728)
Sequence (P21728 whole entry): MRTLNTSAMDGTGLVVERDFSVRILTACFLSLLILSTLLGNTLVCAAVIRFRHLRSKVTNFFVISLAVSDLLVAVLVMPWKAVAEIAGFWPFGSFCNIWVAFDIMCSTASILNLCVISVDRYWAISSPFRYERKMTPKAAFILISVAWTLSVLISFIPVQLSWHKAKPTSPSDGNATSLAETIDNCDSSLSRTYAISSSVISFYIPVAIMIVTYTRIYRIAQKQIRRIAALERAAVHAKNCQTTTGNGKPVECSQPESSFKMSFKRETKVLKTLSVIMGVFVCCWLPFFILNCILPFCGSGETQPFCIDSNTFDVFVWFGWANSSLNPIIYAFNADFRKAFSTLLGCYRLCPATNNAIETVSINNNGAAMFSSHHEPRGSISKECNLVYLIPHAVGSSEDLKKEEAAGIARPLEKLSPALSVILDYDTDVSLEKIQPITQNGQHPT
Experiment: NIMH PDSP secondary binding assay
Conditions: not given

| SMILES | Ki [µM] |
| --- | --- |
| CCCCCCCNCCCc1ccccc1 [2a, N-(3-Phenylpropyl)heptan-1-amine] | > 10 |

System: A549
Experiment: Multiplex cytotoxicity assay
Assay type: cell-based
Conditions: Homo sapiens, A549, read-out: IC50 A549

| SMILES | IC50 [µM] |
| --- | --- |
| CCCCCCCNCCCc1ccccc1 [2a, N-(3-Phenylpropyl)heptan-1-amine] | 83 ± 11 |

Target: T3, α-1A (α-adrenergic receptor subtype 1A) (Homo sapiens, UniProt P35348)
T3 sequence (P35348 1-466): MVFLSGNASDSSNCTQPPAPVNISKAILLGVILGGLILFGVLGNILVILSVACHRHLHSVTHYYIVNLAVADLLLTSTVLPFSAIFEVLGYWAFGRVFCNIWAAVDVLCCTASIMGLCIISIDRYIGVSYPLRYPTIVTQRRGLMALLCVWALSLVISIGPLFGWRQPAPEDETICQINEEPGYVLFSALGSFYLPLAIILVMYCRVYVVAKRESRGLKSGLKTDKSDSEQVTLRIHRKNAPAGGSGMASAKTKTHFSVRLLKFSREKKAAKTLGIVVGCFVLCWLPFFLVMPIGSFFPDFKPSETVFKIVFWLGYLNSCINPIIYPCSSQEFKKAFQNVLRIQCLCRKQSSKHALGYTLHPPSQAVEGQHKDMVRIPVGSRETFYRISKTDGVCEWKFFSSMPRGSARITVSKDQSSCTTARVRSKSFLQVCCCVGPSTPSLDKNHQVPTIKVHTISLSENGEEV
Experiment: NIMH PDSP secondary binding assay
Conditions: not given

| SMILES | Ki [µM] |
| --- | --- |
| CCCCCCCNCCCc1ccccc1 [2a, N-(3-Phenylpropyl)heptan-1-amine] | > 10 |

Target: β-2 (β-adrenergic receptor subtype 2) (Homo sapiens, UniProt P07550)
Sequence (P07550 whole entry): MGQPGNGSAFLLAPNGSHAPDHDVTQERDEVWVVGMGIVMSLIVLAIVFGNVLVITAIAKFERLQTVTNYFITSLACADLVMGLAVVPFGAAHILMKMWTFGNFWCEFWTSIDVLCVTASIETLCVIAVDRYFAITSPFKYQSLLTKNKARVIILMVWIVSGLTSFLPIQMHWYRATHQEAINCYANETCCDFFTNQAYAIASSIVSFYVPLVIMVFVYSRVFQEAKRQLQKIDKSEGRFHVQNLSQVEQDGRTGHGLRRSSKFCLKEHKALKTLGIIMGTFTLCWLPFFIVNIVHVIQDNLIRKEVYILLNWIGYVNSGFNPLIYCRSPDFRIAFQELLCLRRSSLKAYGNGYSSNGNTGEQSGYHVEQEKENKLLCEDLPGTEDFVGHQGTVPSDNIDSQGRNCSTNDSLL
Experiment: NIMH PDSP secondary binding assay
Conditions: not given

| SMILES | Ki [µM] |
| --- | --- |
| CCCCCCCNCCCc1ccccc1 [2a, N-(3-Phenylpropyl)heptan-1-amine] | > 10 |

Target: 5HT2B (serotonin receptor subtype 2B) (Homo sapiens, UniProt P41595)
Sequence (P41595 whole entry, species assumed): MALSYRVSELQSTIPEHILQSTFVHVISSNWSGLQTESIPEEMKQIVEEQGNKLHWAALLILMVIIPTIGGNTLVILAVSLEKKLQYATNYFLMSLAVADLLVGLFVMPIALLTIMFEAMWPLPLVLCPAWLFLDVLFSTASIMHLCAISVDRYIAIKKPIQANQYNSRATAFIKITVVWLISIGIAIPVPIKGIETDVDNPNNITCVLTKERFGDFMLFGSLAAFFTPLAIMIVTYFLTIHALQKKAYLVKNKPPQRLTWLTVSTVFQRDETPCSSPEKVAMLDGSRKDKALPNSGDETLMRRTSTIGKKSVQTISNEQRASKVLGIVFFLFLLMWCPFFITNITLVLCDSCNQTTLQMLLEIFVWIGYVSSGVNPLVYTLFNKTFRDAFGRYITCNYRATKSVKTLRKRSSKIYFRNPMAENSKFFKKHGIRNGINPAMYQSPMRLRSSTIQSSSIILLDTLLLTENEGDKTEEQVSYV
Experiment: NIMH PDSP secondary binding assay
Conditions: not given

| SMILES | Ki [µM] |
| --- | --- |
| CCCCCCCNCCCc1ccccc1 [2a, N-(3-Phenylpropyl)heptan-1-amine] | > 10 |

System: HCT-15
Experiment: Multiplex cytotoxicity assay
Assay type: cell-based
Conditions: Homo sapiens, HCT-15, read-out: IC50 HCT-15

| SMILES | IC50 [µM] |
| --- | --- |
| CCCCCCCNCCCc1ccccc1 [2a, N-(3-Phenylpropyl)heptan-1-amine] | 18 ± 12 |

System: NCI-H460
Experiment: Multiplex cytotoxicity assay
Assay type: cell-based
Conditions: Homo sapiens, NCI-H460, read-out: IC50 NCI-H460

| SMILES | IC50 [µM] |
| --- | --- |
| CCCCCCCNCCCc1ccccc1 [2a, N-(3-Phenylpropyl)heptan-1-amine] | 45 ± 5 |

System: SK-OV-3
Experiment: Multiplex cytotoxicity assay
Assay type: cell-based
Conditions: Homo sapiens, SK-OV-3, read-out: IC50 SK-OV-3

| SMILES | IC50 [µM] |
| --- | --- |
| CCCCCCCNCCCc1ccccc1 [2a, N-(3-Phenylpropyl)heptan-1-amine] | > 100 |

System: MCF-10A
Experiment: Multiplex cytotoxicity assay
Assay type: cell-based
Conditions: Homo sapiens, read-out: IC50 MCF-10A

| SMILES | IC50 [µM] |
| --- | --- |
| CCCCCCCNCCCc1ccccc1 [2a, N-(3-Phenylpropyl)heptan-1-amine] | 70 ± 5 |

System: H1299
Experiment: Multiplex cytotoxicity assay
Assay type: cell-based
Conditions: Homo sapiens, NCI-H1299, read-out: IC50 H1299

| SMILES | IC50 [µM] |
| --- | --- |
| CCCCCCCNCCCc1ccccc1 [2a, N-(3-Phenylpropyl)heptan-1-amine] | 39 ± 6 |

System: MCF-7
Experiment: Multiplex cytotoxicity assay
Assay type: cell-based
Conditions: Homo sapiens, MCF7, read-out: IC50 MCF-7

| SMILES | IC50 [µM] |
| --- | --- |
| CCCCCCCNCCCc1ccccc1 [2a, N-(3-Phenylpropyl)heptan-1-amine] | 20 ± 1 |

Target: NET (norepinephrine transporter) (Homo sapiens, UniProt P23975)
Sequence (P23975 whole entry, species assumed): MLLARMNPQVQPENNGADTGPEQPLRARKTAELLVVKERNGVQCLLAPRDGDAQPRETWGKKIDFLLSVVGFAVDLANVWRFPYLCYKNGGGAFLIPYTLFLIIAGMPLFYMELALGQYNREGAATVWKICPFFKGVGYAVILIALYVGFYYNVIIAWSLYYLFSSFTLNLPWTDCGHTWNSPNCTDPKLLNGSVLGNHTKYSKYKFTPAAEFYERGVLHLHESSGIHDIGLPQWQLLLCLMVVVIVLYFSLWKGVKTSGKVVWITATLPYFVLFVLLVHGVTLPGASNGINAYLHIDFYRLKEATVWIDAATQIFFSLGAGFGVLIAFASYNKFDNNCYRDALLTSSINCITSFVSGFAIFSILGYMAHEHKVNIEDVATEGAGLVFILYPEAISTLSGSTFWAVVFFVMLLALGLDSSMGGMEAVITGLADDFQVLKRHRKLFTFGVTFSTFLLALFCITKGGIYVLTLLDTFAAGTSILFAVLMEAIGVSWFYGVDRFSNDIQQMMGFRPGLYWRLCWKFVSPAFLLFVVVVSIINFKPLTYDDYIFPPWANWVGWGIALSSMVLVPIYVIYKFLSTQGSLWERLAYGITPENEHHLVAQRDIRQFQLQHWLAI
Experiment: NIMH PDSP secondary binding assay
Conditions: not given

| SMILES | Ki [µM] |
| --- | --- |
| CCCCCCCNCCCc1ccccc1 [2a, N-(3-Phenylpropyl)heptan-1-amine] | > 10 |

Target: SERT (serotonin transporter) (Homo sapiens, UniProt P31645)
Sequence (P31645 whole entry, species assumed): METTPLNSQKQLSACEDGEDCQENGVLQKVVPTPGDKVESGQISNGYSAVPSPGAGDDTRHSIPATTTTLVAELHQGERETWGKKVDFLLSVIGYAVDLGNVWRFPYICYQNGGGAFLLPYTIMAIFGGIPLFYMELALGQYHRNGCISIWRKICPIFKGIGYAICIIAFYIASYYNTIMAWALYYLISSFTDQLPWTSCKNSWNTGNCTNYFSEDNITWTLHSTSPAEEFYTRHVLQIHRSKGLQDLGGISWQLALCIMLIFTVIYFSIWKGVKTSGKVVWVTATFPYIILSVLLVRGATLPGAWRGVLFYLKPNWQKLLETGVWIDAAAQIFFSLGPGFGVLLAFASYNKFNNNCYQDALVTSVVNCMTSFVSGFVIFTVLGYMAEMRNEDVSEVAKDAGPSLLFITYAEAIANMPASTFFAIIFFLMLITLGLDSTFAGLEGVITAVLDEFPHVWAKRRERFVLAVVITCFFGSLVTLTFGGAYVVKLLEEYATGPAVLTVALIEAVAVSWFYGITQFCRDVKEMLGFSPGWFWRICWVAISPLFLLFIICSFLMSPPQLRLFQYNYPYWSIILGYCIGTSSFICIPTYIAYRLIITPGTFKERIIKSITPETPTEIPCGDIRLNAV
Experiment: NIMH PDSP secondary binding assay
Conditions: not given

| SMILES | Ki [µM] |
| --- | --- |
| CCCCCCCNCCCc1ccccc1 [2a, N-(3-Phenylpropyl)heptan-1-amine] | > 10 |

Target: T4, Sig-2R, sigma-2 receptor (Rattus norvegicus, UniProt Q5U3Y7)
T4 sequence (Q5U3Y7 1-176): T1 sequence (Q5U3Y7 1-176)
Experiment: NIMH PDSP secondary binding assay
Conditions: not given

| SMILES | Ki [µM] |
| --- | --- |
| CCCCCCCNCCCc1ccccc1 [2a, N-(3-Phenylpropyl)heptan-1-amine] | 0.25 |

Target: H3 (histamine receptor type 3) (Homo sapiens, UniProt Q9Y5N1)
Sequence (Q9Y5N1 whole entry): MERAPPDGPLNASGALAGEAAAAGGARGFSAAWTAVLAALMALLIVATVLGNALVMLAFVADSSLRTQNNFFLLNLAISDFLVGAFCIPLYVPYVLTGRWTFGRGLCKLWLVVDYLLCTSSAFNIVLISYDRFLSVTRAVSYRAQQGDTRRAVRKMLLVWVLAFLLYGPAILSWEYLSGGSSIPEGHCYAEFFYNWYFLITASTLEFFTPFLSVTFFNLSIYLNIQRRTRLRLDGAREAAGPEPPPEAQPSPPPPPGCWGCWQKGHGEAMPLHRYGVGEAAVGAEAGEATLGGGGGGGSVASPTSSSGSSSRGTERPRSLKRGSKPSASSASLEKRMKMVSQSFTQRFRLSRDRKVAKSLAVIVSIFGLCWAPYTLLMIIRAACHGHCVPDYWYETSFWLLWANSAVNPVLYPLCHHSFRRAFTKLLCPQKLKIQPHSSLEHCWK
Experiment: NIMH PDSP secondary binding assay
Conditions: not given

| SMILES | Ki [µM] |
| --- | --- |
| CCCCCCCNCCCc1ccccc1 [2a, N-(3-Phenylpropyl)heptan-1-amine] | > 10 |

Target: Sig-1R, sigma-1 receptor (Rattus norvegicus, UniProt Q9R0C9)
Sequence (Q9R0C9 whole entry): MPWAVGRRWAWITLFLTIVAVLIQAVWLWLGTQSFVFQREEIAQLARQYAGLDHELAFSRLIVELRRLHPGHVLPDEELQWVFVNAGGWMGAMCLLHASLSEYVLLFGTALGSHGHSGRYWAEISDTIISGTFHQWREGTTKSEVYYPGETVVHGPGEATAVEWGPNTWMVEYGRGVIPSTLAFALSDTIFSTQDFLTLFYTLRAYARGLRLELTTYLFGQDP
Experiment: NIMH PDSP secondary binding assay
Conditions: not given

| SMILES | Ki [µM] |
| --- | --- |
| CCCCCCCNCCCc1ccccc1 [2a, N-(3-Phenylpropyl)heptan-1-amine] | 0.09 |

System: SF-268
Experiment: Multiplex cytotoxicity assay
Assay type: cell-based
Conditions: Homo sapiens, SF-268, read-out: IC50 SF-268

| SMILES | IC50 [µM] |
| --- | --- |
| CCCCCCCNCCCc1ccccc1 [2a, N-(3-Phenylpropyl)heptan-1-amine] | 63 ± 2 |

Target: β-3 (β-adrenergic receptor subtype 3) (Homo sapiens, UniProt P13945)
Sequence (P13945 whole entry): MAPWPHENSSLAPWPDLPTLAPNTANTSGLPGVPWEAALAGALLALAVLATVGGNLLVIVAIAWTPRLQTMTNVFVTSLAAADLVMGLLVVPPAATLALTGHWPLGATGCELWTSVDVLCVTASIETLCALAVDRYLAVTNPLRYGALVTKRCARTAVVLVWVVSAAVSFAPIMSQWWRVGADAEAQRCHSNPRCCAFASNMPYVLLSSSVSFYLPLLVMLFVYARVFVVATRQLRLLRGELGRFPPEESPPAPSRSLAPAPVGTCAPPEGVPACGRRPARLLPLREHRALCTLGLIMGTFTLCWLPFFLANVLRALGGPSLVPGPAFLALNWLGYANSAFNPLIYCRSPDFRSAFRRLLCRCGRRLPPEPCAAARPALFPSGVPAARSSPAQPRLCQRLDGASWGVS
Experiment: NIMH PDSP secondary binding assay
Conditions: not given

| SMILES | Ki [µM] |
| --- | --- |
| CCCCCCCNCCCc1ccccc1 [2a, N-(3-Phenylpropyl)heptan-1-amine] | > 10 |
